Inconclusive results and toxic doses are left out.
System: P388 leukemia ip, CD2F1 mice, survival T/C
Experiment: NCI In Vivo Anticancer Drug Screen. Data for tumor model P388 Leukemia (intraperitoneal) in CD2F1 (CDF1) mice
Conditions: endpoint: median survival time, higher = longer survival
In short: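 Mice carrying the transplanted tumor received test compound or vehicle. Survival was recorded in each group, and the value is the treated-group measurement divided by that of the vehicle-treated control group.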

[1] = dose: 100.0 mg/kg/injection, schedule: Q04DX003 (ip), vehicle: saline with Tween-80

Q: With `CC(C)c1cccc(C(C)C)c1NC(=O)OC1CCCCC1C` (stereo unspecified) as the compound, how does the T/C (dose: 60.0 mg/kg/injection, schedule: Q01DX005 (ip), vehicle: saline with Tween-80) read?
A: The T/C was 94 % of control.

Q: What about the T/C (dose: 120.0 mg/kg/injection, schedule: Q01DX005 (ip), vehicle: saline with Tween-80) of the same compound?
A: The T/C was 90 % of control.

Q: And the T/C (dose: 240.0 mg/kg/injection, schedule: Q01DX005 (ip), vehicle: saline with Tween-80)?
A: Its T/C is 98 % of control.

Q: Which T/C [1] does the source give for `COc1ccc(-c2cc(=O)c3c(O)cc(OC)cc3o2)cc1` here?
A: Its T/C is 95 % of control.

Q: What about the T/C (dose: 200.0 mg/kg/injection, schedule: Q04DX003 (ip), vehicle: saline with Tween-80) of the same compound?
A: The T/C was 90 % of control.

Q: What about the T/C (dose: 400.0 mg/kg/injection, schedule: Q04DX003 (ip), vehicle: saline with Tween-80) of the same compound?
A: The T/C was 90 % of control.

Q: What does the source list for `[C-]#[N+]C1(c2ccccc2)C2CC3CC(C2)CC1C3` (stereo unspecified)?
A: T/C (dose: 100.0 mg/kg/injection, schedule: Q04DX003 (ip), vehicle: Klucel (hydroxypropylcellulose) (HPC)): 106 % of control; T/C (dose: 200.0 mg/kg/injection, schedule: Q04DX003 (ip), vehicle: Klucel (hydroxypropylcellulose) (HPC)): 100 % of control; T/C (dose: 400.0 mg/kg/injection, schedule: Q04DX003 (ip), vehicle: Klucel (hydroxypropylcellulose) (HPC)): 106 % of control

Q: Which results are given for `S=c1nc2ccccn2c(=S)n1-c1ccccn1`?
A: T/C (dose: 50.0 mg/kg/injection, schedule: Q04DX003 (ip), vehicle: saline with Tween-80): 95 % of control; T/C [1]: 115 % of control

Q: Which results are given for `CNC=O`?
A: T/C (dose: 80.0 mg/kg/injection, schedule: Q01DX005 (ip), vehicle: water): 108 % of control; T/C (dose: 160.0 mg/kg/injection, schedule: Q01DX005 (ip), vehicle: water): 115 % of control; T/C (dose: 197.6 mg/kg/injection, schedule: Q01DX005 (ip), vehicle: saline): 116 % of control; T/C (dose: 197.6 mg/kg/injection, schedule: Q01DX005 (iv), vehicle: saline): 120 % of control; T/C (dose: 296.3 mg/kg/injection, schedule: Q01DX005 (ip), vehicle: water): 107 % of control; T/C (dose: 296.5 mg/kg/injection, schedule: Q01DX001 (ip), vehicle: saline): 101 % of control; T/C (dose: 296.5 mg/kg/injection, schedule: Q01DX001 (iv), vehicle: saline): 100 % of control; T/C (dose: 320.0 mg/kg/injection, schedule: Q01DX005 (ip), vehicle: water): 118 % of control; T/C (dose: 444.4 mg/kg/injection, schedule: Q01DX005 (ip), vehicle: water): 122 % of control; T/C (dose: 444.5 mg/kg/injection, schedule: Q01DX001 (ip), vehicle: saline): 104 % of control; T/C (dose: 444.5 mg/kg/injection, schedule: Q01DX001 (iv), vehicle: saline): 103 % of control; T/C (dose: 444.5 mg/kg/injection, schedule: Q01DX001 (oral), vehicle: saline): 103 % of control; T/C (dose: 444.5 mg/kg/injection, schedule: Q01DX009 (ip), vehicle: saline): 98 % of control; T/C (dose: 444.5 mg/kg/injection, schedule: Q01DX009 (oral), vehicle: saline): 173 % of control; T/C (dose: 666.7 mg/kg/injection, schedule: Q01DX001 (ip), vehicle: saline): 107 % of control; T/C (dose: 666.7 mg/kg/injection, schedule: Q01DX001 (iv), vehicle: saline): 111 % of control; T/C (dose: 666.7 mg/kg/injection, schedule: Q01DX001 (oral), vehicle: saline): 114 % of control; T/C (dose: 666.7 mg/kg/injection, schedule: Q01DX005 (ip), vehicle: saline): 156 % of control; T/C (dose: 666.7 mg/kg/injection, schedule: Q01DX005 (ip), vehicle: water): 166 % of control; T/C (dose: 666.7 mg/kg/injection, schedule: Q01DX009 (ip), vehicle: saline): 93 % of control; T/C (dose: 666.7 mg/kg/injection, schedule: Q01DX009 (oral), vehicle: saline): 98 % of control; T/C (dose: 1000.0 mg/kg/injection, schedule: Q01DX001 (ip), vehicle: saline): 116 % of control; T/C (dose: 1000.0 mg/kg/injection, schedule: Q01DX001 (iv), vehicle: saline): 119 % of control; T/C (dose: 1000.0 mg/kg/injection, schedule: Q01DX001 (oral), vehicle: saline): 116 % of control; T/C (dose: 1000.0 mg/kg/injection, schedule: Q01DX005 (iv), vehicle: saline): 86 % of control; T/C (dose: 1000.0 mg/kg/injection, schedule: Q01DX005 (oral), vehicle: saline): 95 % of control; T/C (dose: 1000.0 mg/kg/injection, schedule: Q01DX009 (oral), vehicle: saline): 98 % of control; T/C (dose: 1280.0 mg/kg/injection, schedule: Q01DX005 (ip), vehicle: water): 161 % of control; T/C (dose: 1500.0 mg/kg/injection, schedule: Q01DX001 (ip), vehicle: saline): 120 % of control; T/C (dose: 1500.0 mg/kg/injection, schedule: Q01DX005 (oral), vehicle: saline): 86 % of control

Reference: PubChem BioAssay AID330 (DTP/NCI, 2004)
